# Where two headings read alike, the source gives them in different places.
# Columns and labels:
# Bacteroides fragilis = test: MIC range, recent clinical and veterinary isolates; type: cell-based; settings: [11] isolates
# Klebsiella oxytoca = test: MIC range, recent clinical and veterinary isolates; type: cell-based; settings: 18 h, [10] isolates, read-out: MIC Range
# Citrobacter freundii = test: MIC range, recent clinical and veterinary isolates; type: cell-based; settings: [10] isolates
# Anaerobic Gram(+)Cocci = test: MIC range, recent clinical and veterinary isolates; type: cell-based; settings: 18 h, read-out: MIC Range
# Shigella spp. = test: MIC range, recent clinical and veterinary isolates; type: cell-based; settings: 18 h, [14] isolates
# Listeria monocytogenes = test: MIC range, recent clinical and veterinary isolates; type: cell-based; settings: 18 h, [8] isolates
# [1] = test system: Escherichia coli UBMS 90-4 (Tet M); test: Acute lethal infection in mice, E. coli UBMS 90-4; settings: in Mus musculus, iv, 168 h
# [2] = test system: Staphylococcus Coagulase-negative, (methicillin-susceptible); test: MIC range, recent clinical and veterinary isolates; type: cell-based; settings: 18 h, [14] isolates
# Klebsiella pneumoniae = test: MIC range, recent clinical and veterinary isolates; type: cell-based; settings: 18 h, [10] isolates
# E. coli J3272 Tet sens = test: MIC, agar dilution; type: cell-based; settings: Escherichia coli, J3272TETSENS, 18 h
# Morganella morganii = test: MIC range, recent clinical and veterinary isolates; type: cell-based; settings: 18 h, [16] isolates
# Serratia marcescens = test: MIC range, recent clinical and veterinary isolates; type: cell-based; settings: 18 h, read-out: MIC Range
# Bacteroides spp. = test: MIC range, recent clinical and veterinary isolates; type: cell-based; settings: 18 h; Bacteroides spp., [9] isolates; read-out: MIC Range
# [3] = test system: Pasturella multocida (Veterinary); test: MIC range, recent clinical and veterinary isolates; type: cell-based; settings: 18 h, [17] isolates
# [4] = test system: Bordetella bronchiseptica (Veterinary); test: MIC range, recent clinical and veterinary isolates; type: cell-based; settings: 18 h; Bordetella bronchiseptica (Veterinary), [10] isolates; read-out: MIC Range
# Proteus vulgaris = test: MIC range, recent clinical and veterinary isolates; type: cell-based; settings: 18 h, read-out: MIC Range
# E. coli UBMS 90-5 = test: microbe, parasite or virus in culture; type: cell-based; settings: Escherichia coli, UBMS905, 18 h, E. coli UBMS 90-5; read-out: MIC
# Xanthamonas maltophilia = test: MIC range, recent clinical and veterinary isolates; type: cell-based; settings: 18 h; Xanthamonas maltophilia, [10] isolates; read-out: MIC Range
# Streptococcus agalactiae = test: MIC range, recent clinical and veterinary isolates; type: cell-based; settings: 18 h, [10] isolates, read-out: MIC Range
# Enterococcus faecium = test: MIC range, recent clinical and veterinary isolates; type: cell-based; settings: 18 h, [10] isolates, read-out: MIC Range
# [5] = test system: Staphylococcus Coagulase-negative, (methicillin-resistant); test: MIC range, recent clinical and veterinary isolates; type: cell-based; settings: 18 h, [16] isolates
# [6] = test system: Escherichia coli (Veterinary); test: MIC range, recent clinical and veterinary isolates; type: cell-based; settings: 18 h, [15] isolates
# Enterococcus 12201 = test: MIC, agar dilution; type: cell-based; settings: Enterococcus, 12201, 18 h, Enterococcus 12201; read-out: MIC
# [7] = test system: Bacteroides fragilis group; test: MIC range, recent clinical and veterinary isolates; type: cell-based; settings: 18 h; Bacteroides fragilis group, [10] isolates; read-out: MIC Range
# [8] = test system: Staphylococcus aureus, (methicillin-susceptible); test: MIC range, recent clinical and veterinary isolates; type: cell-based; settings: 18 h; Staphylococcus aureus (methicillin-susceptible), [15] isolates; read-out: MIC Range
# Enterococcus faecalis = test: MIC range, recent clinical and veterinary isolates; type: cell-based; settings: 18 h, [10] isolates, read-out: MIC Range
# Streptococcus pyogenes = test: MIC range, recent clinical and veterinary isolates; type: cell-based; settings: 18 h, [10] isolates, read-out: MIC Range
# Pseudomonas aeruginosa = test: MIC range, recent clinical and veterinary isolates; type: cell-based; settings: 18 h, [10] isolates, read-out: MIC Range
# Enterobacter aerogenes = test: MIC range, recent clinical and veterinary isolates; type: cell-based; settings: Klebsiella aerogenes, 18 h; Enterobacter aerogenes, [10] isolates; read-out: MIC Range
# Moraxella catarrhalis = test: MIC range, recent clinical and veterinary isolates; type: cell-based; settings: 18 h, [18] isolates, read-out: MIC Range
# E. faecalis ATCC 29212 = test: MIC, agar dilution; type: cell-based; settings: Enterococcus faecalis, ATCC29212, 18 h
# S. marcescens FPOR 8733 = test: MIC, agar dilution; type: cell-based; settings: Serratia marcescens, FPOR8733, 18 h
# Citrobacter diversus = test: MIC range, recent clinical and veterinary isolates; type: cell-based; settings: Citrobacter koseri, 18 h; Citrobacter diversus, [10] isolates; read-out: MIC Range
# Enterobacter cloacae = test: MIC range, recent clinical and veterinary isolates; type: cell-based; settings: 18 h, [10] isolates, read-out: MIC Range
# [9] = test system: Ps. aeruginosa ATCC 27853; test: MIC, agar dilution; type: cell-based; settings: Pseudomonas aeruginosa, ATCC27853, 18 h
# Escherichia coli = test: MIC range, recent clinical and veterinary isolates; type: cell-based; settings: 18 h, [30] isolates, read-out: MIC Range
# Haemophilus influenzae = test: MIC range, recent clinical and veterinary isolates; type: cell-based; settings: 18 h, [15] isolates
# [10] = test system: Enterococcus spp, (Vancomycin-resistant); test: MIC range, recent clinical and veterinary isolates; type: cell-based; settings: 18 h, [8] isolates
# Streptococcus pneumoniae = test: MIC range, recent clinical and veterinary isolates; type: cell-based; settings: 18 h, [10] isolates, read-out: MIC Range
# Proteus mirabilis = test: MIC range, recent clinical and veterinary isolates; type: cell-based; settings: 18 h, [26] isolates, read-out: MIC Range
# Clostridium difficile = test: MIC range, recent clinical and veterinary isolates; type: cell-based; settings: Clostridium difficile, [12] isolates
# [11] = test system: Staphylococcus aureus strain Smith (tetracycline sensitive); test: Acute lethal infection in mice, S. aureus Smith; type: in vivo; settings: Staphylococcus aureus, 168 h, mice, S. aureus Smith (Sens), 7 day survival, read-out: ED50
# E. coli J3272 Tet C = test: microbe, parasite or virus in culture; type: cell-based; settings: Escherichia coli, J3272TETC, 18 h
# Neisseria gonorrhoeae = test: MIC range, recent clinical and veterinary isolates; type: cell-based; settings: 18 h, [14] isolates
# Salmonella spp. = test: MIC range, recent clinical and veterinary isolates; type: cell-based; settings: 18 h, [11] isolates
smiles,measurement,setting,value
"CN(C)c1ccc(O)c2c1C[C@H]1C[C@H]3[C@H](N(C)C)C(O)=C(C(N)=O)C(=O)[C@@]3(O)C(O)=C1C2=O [U, Minocycline, reference compound]",MIC Range,Bacteroides fragilis,<0.008 to 16 µg/mL
same,MIC,Klebsiella oxytoca,0.5 to 4 µg/mL
same,MIC Range,Citrobacter freundii,0.03 to 32 µg/mL
same,MIC,Anaerobic Gram(+)Cocci,0.05 to 8 µg/mL
same,MIC,Shigella spp.,0.25 to 8 µg/mL
same,MIC,Listeria monocytogenes,0.015 to 0.03 µg/mL
same,ED50,[1],> 32 mg/kg
same,MIC,[2],0.015 to 0.25 µg/mL
same,MIC,Klebsiella pneumoniae,0.5 to 8 µg/mL
same,MIC,E. coli J3272 Tet sens,1 µg/mL
same,MIC,Morganella morganii,0.25 to 32 µg/mL
same,MIC,Serratia marcescens,1 to 8 µg/mL
same,MIC,Bacteroides spp.,0.03 to 16 µg/mL
same,MIC,[3],0.015 to 4 µg/mL
same,MIC,[4],0.06 to 0.12 µg/mL
same,MIC,Proteus vulgaris,0.5 to 16 µg/mL
same,MIC,E. coli UBMS 90-5,1 µg/mL
same,MIC,Xanthamonas maltophilia,0.12 to 1 µg/mL
same,MIC,Streptococcus agalactiae,0.12 to 16 µg/mL
same,MIC,Enterococcus faecium,0.03 to 16 µg/mL
same,MIC,[5],0.03 to 1 µg/mL
same,MIC,[6],1 to 16 µg/mL
same,MIC,Enterococcus 12201,8 µg/mL
same,MIC,[7],0.008 to 4 µg/mL
same,MIC,[8],0.03 to 0.12 µg/mL
same,MIC,Enterococcus faecalis,0.03 to 16 µg/mL
same,MIC,Streptococcus pyogenes,0.03 to 2 µg/mL
same,MIC,Pseudomonas aeruginosa,1 to 16 µg/mL
same,MIC,Enterobacter aerogenes,0.5 to 1 µg/mL
same,MIC,Moraxella catarrhalis,0.03 to 0.12 µg/mL
same,MIC,E. faecalis ATCC 29212,2 µg/mL
same,MIC,S. marcescens FPOR 8733,4 µg/mL
same,MIC,Citrobacter diversus,0.25 to 4 µg/mL
same,MIC,Enterobacter cloacae,0.25 to 4 µg/mL
same,MIC,[9],8 µg/mL
same,MIC,Escherichia coli,0.25 to 32 µg/mL
same,MIC,Haemophilus influenzae,0.5 to 2 µg/mL
same,MIC,[10],0.03 to 16 µg/mL
same,MIC,Streptococcus pneumoniae,0.06 to 0.5 µg/mL
same,MIC,Proteus mirabilis,1 to 32 µg/mL
same,MIC Range,Clostridium difficile,0.015 to 16 µg/mL
same,ED50,"[11]; iv, Intraveneous",0.37 mg/kg
same,ED50,"[11]; po, Oral",0.74 mg/kg
same,MIC,E. coli J3272 Tet C,1 µg/mL
same,MIC,Neisseria gonorrhoeae,0.5 to 64 µg/mL
same,MIC,Salmonella spp.,0.5 to 16 µg/mL

# — patent publication US5567692A, “9-[(substituted glycyl) amido)]-6-demethyl-6-deoxytetracyclines” (priority 1995, dated 1996)
